Source: paper PMC8869629, “Comparison of Various Solvent Extracts and Major Bioactive Components from Portulaca oleracea for Antioxidant, Anti-Tyrosinase, and Anti-α-Glucosidase Activities” (Antioxidants, 2022)
In brackets after ≈: the same amount, converted by molar mass.

Key:
[1] = DPPH radical scavenging assay; format: biochemical; conditions: mean ± SD (n = 3)
Experimental: The DPPH radical scavenging assay was determined by the reference method.

[2] = ABTS cation radical scavenging assay; format: biochemical; conditions: mean ± SD (n = 3)
Experimental: The ABTS cation radical scavenging assay was carried out using the reference method.

[3] = Hydroxyl radical scavenging assay; format: biochemical; conditions: mean ± SD (n = 3)
Experimental: The samples were evaluated for hydroxyl radical scavenging activity based on the previously described method.

[4] = Superoxide anion radical scavenging assay (PMS-NADH-NBT); format: biochemical; conditions: isolated components (Table 5); mean ± SD (n = 3)
Experimental: Superoxide anion radical (O2^•−) scavenging activity was described earlier with slight changes. […] The reaction was initiated by adding 50 μL of NADH (468 μM) solution to the mixture. After incubating at room temperature for 5 min, the activity of samples was determined by calculating the decrease in absorbance measured at 560 nm by the following equation,
Superoxide anion radical scavenging activity (%) = (A0 − A1)/A0 × 100, where A1 is the absorbance of the test sample and A0 is the absorbance of the control.
IC50 values for the tested activities were determined by linear regression of the percentage of remaining superoxide anion radicals against sample concentration.

[5] = target: α-glucosidase (Saccharomyces cerevisiae, UniProt P53341); test: biochemical
Experimental: α-Glucosidase inhibitory activity was established in accordance with the described method with slight modifications. In brief, 100 μL of different concentrations of the sample, 380 μL of p-nitro-phenyl-α-D-glucopyranoside (p-NPG) (0.53 mM), and 20 μL of α-Glucosidase solution (1 units/mL) were mixed in 0.1 M potassium phosphate buffer (pH 6.8). After incubating at 37 °C for 20 min, 500 μL of sodium carbonate (0.1 M) was added in order to quench the reaction. The anti-α-glucosidase activity of the sample was determined by calculating the decrease in absorbance measured at 405 nm by the following equation,
Inhibition (%) = (A0 − A1)/A0 × 100, where A1 is the absorbance of the test sample and A0 is the absorbance of the control.

Chain of α-glucosidase (P53341 whole entry): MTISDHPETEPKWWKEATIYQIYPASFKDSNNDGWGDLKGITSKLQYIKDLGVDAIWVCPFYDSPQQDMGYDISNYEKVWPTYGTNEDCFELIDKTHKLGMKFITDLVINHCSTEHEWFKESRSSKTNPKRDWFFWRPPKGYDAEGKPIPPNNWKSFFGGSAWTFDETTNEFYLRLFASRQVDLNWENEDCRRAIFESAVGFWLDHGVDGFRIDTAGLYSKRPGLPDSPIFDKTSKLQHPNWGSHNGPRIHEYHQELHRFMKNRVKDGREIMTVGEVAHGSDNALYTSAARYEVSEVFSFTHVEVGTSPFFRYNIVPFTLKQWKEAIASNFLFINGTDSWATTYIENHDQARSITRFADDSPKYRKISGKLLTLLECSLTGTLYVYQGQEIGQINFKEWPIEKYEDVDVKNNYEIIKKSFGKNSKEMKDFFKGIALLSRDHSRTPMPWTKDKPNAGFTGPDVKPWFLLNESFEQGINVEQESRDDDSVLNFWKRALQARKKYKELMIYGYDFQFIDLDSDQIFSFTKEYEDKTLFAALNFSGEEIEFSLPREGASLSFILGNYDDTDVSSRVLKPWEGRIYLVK

For `Cc1cc(C(C)(C)C)c(O)c(C(C)(C)C)c1` [BHT, Butylated hydroxytoluene, reference compound], the “IC50 DPPH” value ([1]; isolated components (Table 5)) was 31.04 ± 2.12 µg/mL (≈ 141 µM), the “IC50 DPPH” value ([1]; solvent extracts (Table 2)) was 39.88 ± 1.30 µg/mL (≈ 181 µM) and the “IC50 ABTS” value ([2]; isolated components (Table 5)) was 19.34 ± 2.18 µg/mL (≈ 87.8 µM). The “IC50 ABTS” value ([2]; solvent extracts (Table 2)) was 20.34 ± 1.69 µg/mL (≈ 92.3 µM), the “IC50 Hydroxyl” value ([3]; isolated components (Table 5)) was 58.62 ± 2.75 µg/mL (≈ 266 µM) and the “IC50 Hydroxyl” value ([3]; solvent extracts (Table 2)) was 65.90 ± 1.23 µg/mL (≈ 299 µM).

In the case of `O=C(O)/C=C/c1ccc(O)c(O)c1` [Caffeic acid, caffeic acid], the “IC50 DPPH” value ([1]; isolated components (Table 5)) is reported as 0.81 ± 0.09 µg/mL (≈ 4.5 µM), the “IC50 ABTS” value ([2]; isolated components (Table 5)) is reported as 27.85 ± 18.95 µg/mL (≈ 155 µM) and the “IC50 Superoxide” value [4] is reported as 57.34 ± 7.44 µg/mL (≈ 318 µM). The “IC50 Hydroxyl” value ([3]; isolated components (Table 5)) was 153.04 ± 85.84 µg/mL (≈ 849 µM) and the IC50 [5] was 942 µM.

In the case of `O=c1c(O)c(-c2ccc(O)cc2)oc2cc(O)cc(O)c12` [Kaempferol, kaempferol], the “IC50 DPPH” value ([1]; isolated components (Table 5)) is reported as 2.32 ± 0.17 µg/mL (≈ 8.11 µM), the “IC50 ABTS” value ([2]; isolated components (Table 5)) is reported as 8.75 ± 0.90 µg/mL (≈ 30.6 µM) and the “IC50 Superoxide” value [4] is reported as 541.00 ± 18.47 µg/mL (≈ 1890 µM). The “IC50 Hydroxyl” value ([3]; isolated components (Table 5)) was 11.46 ± 5.60 µg/mL (≈ 40 µM).

With `O=c1c(O)c(-c2ccc(O)c(O)c2)oc2cc(O)cc(O)c12` [Quercetin, quercetin] the “IC50 DPPH” value ([1]; isolated components (Table 5)) was 1.07 ± 0.13 µg/mL (≈ 3.54 µM), the “IC50 ABTS” value ([2]; isolated components (Table 5)) was 11.46 ± 1.82 µg/mL (≈ 37.9 µM) and the “IC50 Superoxide” value [4] was 44.08 ± 3.07 µg/mL (≈ 146 µM). The “IC50 Hydroxyl” value ([3]; isolated components (Table 5)) was 9.75 ± 4.39 µg/mL (≈ 32.3 µM).

With `O=C(/C=C/c1ccc(O)c(O)c1)O[C@H](Cc1ccc(O)c(O)c1)C(=O)O` [Rosmarinic acid, rosmarinic acid] the “IC50 DPPH” value ([1]; isolated components (Table 5)) was 1.87 ± 0.09 µg/mL (≈ 5.19 µM), the “IC50 ABTS” value ([2]; isolated components (Table 5)) was 27.11 ± 14.00 µg/mL (≈ 75.2 µM) and the “IC50 Superoxide” value [4] was 61.62 ± 6.43 µg/mL (≈ 171 µM). For the same compound, the “IC50 Hydroxyl” value ([3]; isolated components (Table 5)) was 6.56 ± 4.77 µg/mL (≈ 18.2 µM) and the IC50 [5] was 514 µM.

In the case of `O=C(O)/C=C/c1ccc(O)cc1` [p-Coumaric acid, p-coumaric acid], the “IC50 DPPH” value ([1]; isolated components (Table 5)) is reported as 204.13 ± 9.78 µg/mL (≈ 1240 µM), the “IC50 ABTS” value ([2]; isolated components (Table 5)) is reported as 27.01 ± 6.12 µg/mL (≈ 165 µM) and the “IC50 Superoxide” value [4] is reported as 256.00 ± 16.27 µg/mL (≈ 1560 µM). For the same compound, the “IC50 Hydroxyl” value ([3]; isolated components (Table 5)) was 60.70 ± 69.24 µg/mL (≈ 370 µM) and the IC50 [5] was greater than 2440 µM.

In the case of `COc1cc(/C=C/C(=O)O)ccc1O` [trans-Ferulic acid, trans-ferulic acid], the “IC50 DPPH” value ([1]; isolated components (Table 5)) is reported as 3.81 ± 0.18 µg/mL (≈ 19.6 µM), the “IC50 ABTS” value ([2]; isolated components (Table 5)) is reported as 24.47 ± 16.45 µg/mL (≈ 126 µM) and the “IC50 Superoxide” value [4] is reported as 541.00 ± 26.95 µg/mL (≈ 2790 µM). The “IC50 Hydroxyl” value ([3]; isolated components (Table 5)) was 68.26 ± 65.58 µg/mL (≈ 352 µM) and the IC50 [5] was greater than 2060 µM.
